The values below come from patent US20090162413A1 (priority 1998, published 2009).

The conditions of data set [1]: cynomolgus monkey, in vivo, iv, 2.5 mg/kg.
Data set [2] deals with human coronary artery smooth muscle cells (hCaSMC). Briefly: 3H-thymidine uptake proliferation assay, hCaSMC. In kind it is cell-based. On the procedure: Experiments were performed to investigate interactions between zotarolimus (ABT-578) and paclitaxel when administered in combination. The effects of paclitaxel and zotarolimus on the anti-proliferative activity of human coronary artery smooth muscle ([…]) and endothelial […] determined using an in vitro proliferation assay. The proliferation and migration of vascular smooth muscle cells into the vascular neointima is a characteristic pathologic response seen in restenotic lesions (Lafont and Libby, 1998). As a result, in vitro assays which specifically measure the anti-proliferative activity of candidate anti-restenotic compounds on human coronary artery smooth muscle and endothelial cells predict potential anti-restenotic activity in vivo. Compounds or combinations of compounds which attenuate growth factor-mediated human coronary artery smooth muscle cell ([…]) proliferation, as measured by the tritium incorporation assay in vitro, are candidate anti-restenotic agents. The tritium incorporation assay is an accurate and sensitive method to determine cell number and proliferation. […] The attenuation of zotarolimus's anti-proliferative activity by tacrolimus is a clear example of this effect (FIG. 10A). To determine the potential anti-restenotic activity of combinations of zotarolimus and paclitaxel, the proliferation of […] was measured in the presence of each compound and in combination. To determine if paclitaxel attenuated or augmented the activity of zotarolimus the effect of paclitaxel and zotarolimus alone and in combination on growth-factor induced proliferation was determined. Data were analyzed for additivity using an isobologram approach and a combination index analysis. An isobologram is a Cartesian plot of pairs of doses that, in combination, yield a specified level of effect. It is a convenient way of graphically displaying results of drug-combination and similar studies, because paired values of experimental points that fall below or above the line connecting the axial points indicate synergistic and non-synergistic interactions, respectively. Cell proliferation was monitored by following incorporation of ^3H-thymidine into newly synthesized DNA of cells stimulated by serum and growth factors. Exponentially growing […] were seeded into 96-well flat bottom tissue culture plates at 5,000 cells/well (10,000 cells/well for […]). The cells were allowed to attach overnight. The growth medium was removed the following day, and cells were washed twice with un-supplemented (basal) medium to remove traces of serum and growth factors. […] PerkinElmer; Wellesley; MA) was added to each filter well and the plates were counted using a TopCount microplate scintillation counter (PerkinElmer). […]

Data set [3] is described as follows: accelerated in vitro elution from PC1036 coated drug-loaded stents (Example 10). In kind it is physicochemical. The conditions noted are these: stents with 10 μg/mm zotarolimus alone or with paclitaxel.
In data set [4] the test system is human coronary artery endothelial cells (hCaEC). The data set is described as follows: 3H-thymidine uptake proliferation assay, hCaEC. In kind it is cell-based. The method, then: Experiments were performed to investigate interactions between zotarolimus (ABT-578) and paclitaxel when administered in combination. The effects of paclitaxel and zotarolimus on the anti-proliferative activity of human coronary artery smooth muscle ([…]) and endothelial […] determined using an in vitro proliferation assay. The proliferation and migration of vascular smooth muscle cells into the vascular neointima is a characteristic pathologic response seen in restenotic lesions (Lafont and Libby, 1998). As a result, in vitro assays which specifically measure the anti-proliferative activity of candidate anti-restenotic compounds on human coronary artery smooth muscle and endothelial cells predict potential anti-restenotic activity in vivo. To determine if paclitaxel attenuated or augmented the activity of zotarolimus the effect of paclitaxel and zotarolimus alone and in combination on growth-factor induced proliferation was determined. Data were analyzed for additivity using an isobologram approach and a combination index analysis. An isobologram is a Cartesian plot of pairs of doses that, in combination, yield a specified level of effect. It is a convenient way of graphically displaying results of drug-combination and similar studies, because paired values of experimental points that fall below or above the line connecting the axial points indicate synergistic and non-synergistic interactions, respectively. Cell proliferation was monitored by following incorporation of ^3H-thymidine into newly synthesized DNA of cells stimulated by serum and growth factors. Exponentially growing […] were seeded into 96-well flat bottom tissue culture plates at 5,000 cells/well (10,000 cells/well for […]). The cells were allowed to attach overnight. […] PerkinElmer; Wellesley; MA) was added to each filter well and the plates were counted using a TopCount microplate scintillation counter (PerkinElmer). […] The concentration eliciting a specific anti-proliferative effect was determined using a four-parameter equation (equation 1): […]

The next data set has as its system Human MLR. The data set is described as follows: human mixed lymphocyte reaction (MLR) assay. In kind it is cell-based. To be noted: read-out: Human MLR IC50 ± S.E.M.

Regarding “40-epi-N-[2′-pyridone]-rapamycin [Example 2-pyridone]”, the AUC in data set [1] stood at 2.55 ng·h/mL.

For `COC1CC2CCC(C)C(O)(O2)C(=O)C(=O)N2CCCCC2C(=O)OC(C(C)CC2CCC(n3ccc(=O)cc3)C(OC)C2)CC(=O)C(C)C=C(C)C(O)C(OC)C(=O)C(C)CC(C)C=CC=CC=C1C` (stereo not drawn) [Example 4-pyridone, 40-epi-N-[4′-pyridone]-rapamycin], in data set [1], the area under the curve (AUC) was found to be 5.59 ng·h/mL.

For the molecule `CC(=O)O[C@H]1C(=O)[C@@]2(C)[C@H]([C@H](OC(=O)c3ccccc3)[C@]3(O)C[C@H](OC(=O)[C@H](O)[C@@H](NC(=O)c4ccccc4)c4ccccc4)C(C)=C1C3(C)C)[C@]1(OC(C)=O)CO[C@@H]1C[C@@H]2O` [PAC, paclitaxel], the 50% inhibitory concentration (IC50) is 3 ± 0.5 nM in data set [2] (Homo sapiens, read-out: hCaSMC IC50 Mean ± SEM) and 4.6 ± 0.3 nM in data set [4] (Homo sapiens, Endothelial cell, read-out: hCaEC IC50 Mean ± SEM). Besides, the “effect on the inhibition of proliferation by zotarolimus” value in data set [2] (hCaSMC, FIG. 10B) is on record as “not blocked”; in data set [4] (hCaEC, FIG. 10C), “not blocked”. Further, the “effect on the elution profile of zotarolimus” value in data set [3] is recorded as “little effect”.

As for `CO[C@H]1C[C@@H]2CC[C@@H](C)[C@@](O)(O2)C(=O)C(=O)N2CCCC[C@H]2C(=O)O[C@H]([C@H](C)C[C@@H]2CC[C@@H](O)[C@H](OC)C2)CC(=O)[C@H](C)/C=C(\C)[C@@H](O)[C@@H](OC)C(=O)[C@H](C)C[C@H](C)/C=C/C=C/C=C/1C` [Rapamycin], the IC50 with Human MLR stood at 0.91 ± 0.36 nM.

On to `C=CC[C@@H]1/C=C(\C)C[C@H](C)C[C@H](OC)[C@H]2O[C@@](O)(C(=O)C(=O)N3CCCC[C@H]3C(=O)O[C@H](/C(C)=C/[C@@H]3CC[C@@H](O)[C@H](OC)C3)[C@H](C)[C@@H](O)CC1=O)[C@H](C)C[C@@H]2OC` [tacrolimus], for which the “effect on the anti-proliferative activity of zotarolimus” value in data set [2] (smooth muscle cells in vitro, FIG. 10A) is given as “blocks the anti-proliferative activity of zotarolimus”.
